19 compounds from patent US20150344407A1, “FENDILINE DERIVATIVES AND METHODS OF USE THEREOF” (THE BOARD OF REGENTS OF THE UNIVERSITY OF TEXAS SYSTEM, priority 2012, published 2015) can be followed below.

SMILES strings stand for the structures. Counter-ions that a name gives are not always drawn.

One test concerns HPAC cells. The test can be described thus: Proliferation assay, pancreatic cancer cell line HPAC. The conditions noted are these: Homo sapiens, 72 h, CyQUANT, oncogenic mutant K-Ras. It counts as cell-based. The text has this: (§1) FIG. 5A-5E—Concentration-response curves of 42, 68, 70, 72 and 73 on proliferation of five pancreatic cancer cell lines. BxPC-3 expresses wild type K-Ras, whereas the others express oncogenic mutant K-Ras. […] EC50 values for their inhibitory effect are tabulated. ND means that the EC50 value could not be determined within the dose range tested. See also Table 5.
(§2) Cell lines: Madine Darby Canine Kidney epithelial cells (MDCK) stably co-expressing mGFP-tagged full length oncogenic mutant K-Ras (GFP-K-RasG12V) and mCherry-tagged to the amino acids 179-189 of H-RasC181S, C184S (mCherry-CAAX, localizes primarily to endomembranes) were grown in DMEM-high glucose/sodium pyruvate/10% FBS. The medium was supplemented with 1× Penicillin/Streptomycin for fluorescence microscopy assays, to avoid any microbial contamination from the test compounds added. KLE and Hec50 cells were maintained in DMEM-F-12 medium supplemented with 10% FBS. Hec-1A and Hec-1B cells were grown in McCoy's 5a medium supplemented with 10% FBS. ESS-1 cells were grown in RPMI 1640 medium supplemented with 20% FBS. MPanc96 cells were grown in DMEM supplemented with 10% FBS, MiaPaCa-2 cells in DMEM supplemented with 10% FBS and 2.5% horse serum and all other cell lines were grown in RPMI 1640 supplemented with 10% FBS. All cancer cell media were supplemented with 1× Penicillin/Streptomycin. All cell lines were grown at 37° C. with 5% CO2.
(§3) Proliferation Assay: Cells were seeded in 96-well plates. After 24 h, fresh growth medium supplemented with 0.1% vehicle (DMSO), or various concentrations of drugs was added and cells were grown for 72 h. Cell numbers were quantified using the CyQUANT® Cell Proliferation Assay Kit (Life Technologies), according to the manufacturer's protocol. Fluorescence measurement was used as a measure of live cell number.
(§4) Based upon the concentration-response curves of five different compounds (42, 68, 70, 72, and 73) were tested for their effects on cell proliferation of five different pancreatic cell lines. These experiments were carried out as described in the Methods and Materials section.

The next test relates to MOH cells. The test can be described thus: Proliferation assay, pancreatic cancer cell line MOH. It counts as cell-based. To be noted: 72 h, CyQUANT, oncogenic mutant K-Ras.
Description: as §1, §2, §3, §4

In a further test the test system is Hec50 cells. The experiment in a line: Proliferation assay, endometrial cancer cell line Hec50. It counts as cell-based. The conditions noted are these: 72 h, CyQUANT; Hec50 expresses oncogenic mutant K-Ras.
Description: (§5) FIG. 4A-4E—Concentration-response curves of 42, 68, 70, 72 and 73 on proliferation of five endometrial cancer cell lines. KLE and ESS-1 express wild type K-Ras and Hec-1A, Hec-1B and Hec50 express oncogenic mutant K-Ras. […] EC50 values for their inhibitory effect are tabulated. ND means that the EC50 value could not be determined within the dose range tested. See also Table 4.
as §2, §3
(§6) Based upon the concentration-response curves of five different compounds (42, 68, 70, 72, and 73) were tested for their effects on cell proliferation of five different endometrial cell lines. These experiments were carried out as described in the Methods and Materials section.

The subject of another test is MiaPaCa-2 cells. The test can be described thus: Proliferation assay, pancreatic cancer cell line MiaPaCa-2. It counts as cell-based. To be noted: Homo sapiens, MIA PaCa-2; 72 h, CyQUANT; oncogenic mutant K-Ras.
Description: as §1, §2, §3, §4

The next test concerns Hec-1A cells. The test can be described thus: Proliferation assay, endometrial cancer cell line Hec-1A. To be noted: Homo sapiens; 72 h, CyQUANT; Hec-1A expresses oncogenic mutant K-Ras. It counts as cell-based.
Description: as §5, §2, §3, §6

The next test deals with MPanc-96 cells. The experiment in a line: Proliferation assay, pancreatic cancer cell line MPanc-96. It counts as cell-based. The conditions noted are these: MPANC96; 72 h, CyQUANT; oncogenic mutant K-Ras.
Description: as §1, §2, §3, §4

The target of test [1] is T1, GFP-tagged K-rasG12V (oncogenic K-ras) in MDCK cells (Homo sapiens, UniProt P01116, G12V).
T1 construct: mGFP-tagged full length oncogenic mutant K-Ras (GFP-K-RasG12V); expressed in transfected cells
The test can be described thus: K-ras mislocalization, confocal fluorescence microscopy with densitometric analysis. To be noted: 4 μM compound, 48 hours, MDCK cells stably expressing GFP-tagged K-rasG12V; normalized to vehicle-treated control; read-out: % Mislocalization of K-ras when treated with 4 μM compound. It counts as cell-based, canine. On the procedure:
FIGS. 1 & 2—Representative images showing degree of K-ras mislocalization with compound treatment (images corresponds with column 3 of Table 2). MDCK cells stably expressing GFP-tagged K-rasG12V were treated with vehicle or compound (4 μM) for 48 hours and fixed with 4% paraformaldehyde. The coverslips were mounted in Mowiol and imaged by confocal microscopy (Nikon A1) using a 60× objective. The number above each image corresponds the fendiline derivative code.
(§7) To determine the effect of compounds on localization of K-ras, Mardine Darby canine kidney epithelial (MDCK) cells stably expressing GFP-tagged K-rasG12V (oncogenic K-ras) grown on cover slips were treated with vehicle or compound (4 μM) for 48 hours and fixed with 4% paraformaldehyde. The coverslips were mounted in Mowiol and imaged by confocal microscopy (Nikon A1) using a 60× objective. Images were analyzed by ImageJ software. Densitometric analysis was performed on images to determine the degree of K-ras mislocalization. To determine the effect of compounds on K-ras function, MDCK cells stably expressing GFP-tagged K-rasG12V were treated with vehicle or compound (4 μM) for 48 hours. Following treatment, whole cell lysates were prepared and subjected SDS-PAGE and western blotting to quantify the level of phosphorylated ERK, a protein activated downstream of K-ras. All calculations were normalized to vehicle-treated control.
Fluorescence microscopy: 2×10^5 or 1×10^5 cells/well were seeded in 6- or 12-well cell culture plates, respectively, containing glass coverslips. 24 h after seeding, fresh medium containing 1% vehicle (Dimethyl sulfoxide, DMSO) or 4 μM test compound (1:100 dilution, such that DMSO was 1%) was added and incubated for 48 h, following which the cells were fixed with 4% paraformaldehyde and coverslips were mounted in Mowiol. Cells were imaged in the GFP wavelength (488 nm) using a confocal microscope (Nikon A1) with 60× objective. Images were saved in tagged imaged file format (tiff) and analyzed by ImageJ software. The densitometric ratio of plasma membrane localized K-Ras versus total K-Ras was calculated and normalized to vehicle-treated control.

Test [2] has as its system phosphorylated ERK, a protein activated downstream of K-ras. The test can be described thus: Western immunoblotting for pERK (inhibition of ERK activation). To be noted: Canis lupus familiaris; 4 μM compound, 48 hours, MDCK cells stably expressing GFP-tagged K-rasG12V; whole cell lysates; normalized to vehicle-treated control; read-out: % Inhibition of ERK activation when treated with 4 μM compound. It counts as cell-based, canine. The procedure:
as §7
Western Immunoblotting for pERK: 2×10^5 cells/well were seeded in 6-well cell culture plates. 24 h after seeding, fresh medium containing 1% vehicle (DMSO) or 4 μM test compound (1:100 dilution, such that DMSO was 1%) was added and incubated for 48 h. Cells were lysed in Buffer B (50 mM Tris [pH 7.5], 75 mM NaCl, 25 mM NaF, 5 mM MgCl2, 5 mM EGTA, 1 mM dithiothreitol, 100 μM NaVO4, 1% Nonidet P-40 plus protease inhibitors). SDS-PAGE and immunoblotting with the anti-phospho-p44/42 mitogen-activated protein kinase (MAPK) (ERK1/2) antibody was performed using 20 μg of each whole cell lysate. Signal was detected by enhanced chemiluminescence (SuperSignal; Pierce, Thermo Fisher Scientific, Rockford, Ill.) and imaged by FluorChemQ (Alpha Inotech, San Leandro, Calif.). Quantification of intensities was performed using FluorChemQ software. Results were normalized to vehicle-treated control.

T1 sequence (P01116 1-188 isoform P01116-2 G12V): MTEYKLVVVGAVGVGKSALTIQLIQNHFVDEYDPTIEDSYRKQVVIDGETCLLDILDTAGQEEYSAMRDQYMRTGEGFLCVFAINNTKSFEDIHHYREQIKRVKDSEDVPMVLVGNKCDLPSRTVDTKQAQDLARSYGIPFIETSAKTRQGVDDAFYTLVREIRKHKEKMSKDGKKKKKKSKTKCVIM

As to `COc1ccc([C@@H](C)N(CC=C(c2ccccc2)c2ccccc2)CC=C(c2ccccc2)c2ccccc2)cc1` [Compound 68, (R)-N-(3,3-diphenylallyl)-N-(1-(4-methoxyphenyl)ethyl)-3,3-diphenylprop-2-en-1-amine], the EC50 was found to be 105 nM in the test with HPAC cells; 931 nM in the test on MOH cells; 1.58 nM in the test on Hec50 cells; 1150 nM in the test with MiaPaCa-2 cells; 211 nM in the test on Hec-1A cells; 912 nM with MPanc-96 cells.

As to `CC(C)=CCC/C(C)=C/CO[C@H](C)c1ccccc1` [Compound 20, (R,E)-(1-((3,7-dimethylocta-2,6-dien-1-yl)oxy)ethyl)benzene], the inhibition at 4 µM in test [1] was 14.6%; in test [2] it was -5.12%.

On to `CCC(NCC=C(c1ccccc1)c1ccccc1)c1ccccc1` (stereo not drawn) [Compound 29, 3,3-diphenyl-N-(1-phenylpropyl)prop-2-en-1-amine hydrochloride], for which the inhibition at 4 µM in test [1] is 37%; in test [2], 40.3%.

On to `C/C=C(/CN[C@H](C)c1ccccc1)c1ccccc1` [Compound 37, (R,E)-2-phenyl-N-(1-phenylethyl)but-2-en-1-amine], for which the inhibition at 4 µM stood at 6.82% in test [1] and 18.9% in test [2].

For `C[C@H](NCC=C(c1ccccc1)c1ccccc1)c1ccccc1` [Compound 17, (S)-3,3-diphenyl-N-(1-phenylethyl)prop-2-en-1-amine], the inhibition at 4 µM in test [1] is 8.27%; in test [2], -51.9%.

For `CC(CNCC=C(c1ccccc1)c1ccccc1)c1ccccc1` (stereo not drawn) [Compound 30, 3,3-diphenyl-N-(2-phenylpropyl)prop-2-en-1-amine], the inhibition at 4 µM in test [1] came to 26.5%; in test [2], 49.1%.

As to `CC[C@@H](NCC=C(c1ccccc1)c1ccccc1)c1ccccc1` [Compound 46, (R)-3,3-diphenyl-N-(1-phenylpropyl)prop-2-en-1-amine], the inhibition at 4 µM came out at 37.5% in test [1] and 54% in test [2].

Consider `C[C@@H](NC/C=C/c1cccc2ccccc12)c1ccccc1` [Compound 32, (R,E)-3-(naphthalen-1-yl)-N-(1-phenylethyl)prop-2-en-1-amine], for which the figures for the inhibition at 4 µM in test [1] and in test [2] were 12.5% and 31.7%, respectively.

As to `C[C@@H](NC/C=C/c1ccccc1)c1cccc2ccccc12` [Compound 34, (R,E)-N-(1-(naphthalen-1-yl)ethyl)-3-phenylprop-2-en-1-amine], the results for the inhibition at 4 µM in test [1] and in test [2] were 7.94% and 18.9%, respectively.

Regarding `COC(=O)[C@H](NC/C=C/c1ccccc1)c1ccccc1` [Compound 40, (R)-methyl 2-(cinnamylamino)-2-phenylacetate], the inhibition at 4 µM in test [1] is 9.46%; in test [2], 11%.

As to `C[C@@H](OC/C=C/c1ccccc1)c1ccccc1` [Compound 24, (R,E)-(1-(cinnamyloxy)ethyl)benzene], the inhibition at 4 µM came to 18% in test [1] and 7.19% in test [2].

As for `C[C@@H](NC/C=C(/c1ccccc1)c1ccc(N)cc1)c1ccccc1` [Compound 50, (R,Z)-4-(1-phenyl-3-((1-phenylethyl)amino)prop-1-en-1-yl)aniline], the values for the inhibition at 4 µM in test [1] and in test [2] were 6.61% and 22.6%, respectively.

For the compound `C[C@@H](NCC=C1c2ccccc2C=Cc2ccccc21)c1ccc(F)cc1` [Compound 58, (R)—N-(2 (5H-dibenzo[a,d][7]annulen-5-ylidene)ethyl)-1-(4-fluorophenyl) ethanamine], the inhibition at 4 µM in test [1] was 5.05%; in test [2], -78.7%.

Turning to `CC(NCC=C(c1ccccc1)c1ccccc1)c1ccccc1` (stereo not drawn) [Compound 12, 3,3-diphenyl-N-(1-phenylethyl)prop-2-en-1-amine hydrochloride], the inhibition at 4 µM in test [1] was determined as 37.7%; in test [2] it was 55.1%.

In the case of `COC(=O)[C@@H](NCC=C(c1ccccc1)c1ccccc1)c1ccccc1` [Compound 43, (S)-methyl 2-((3,3-diphenylallyl)amino)-2-phenylacetate], the figures for the inhibition at 4 µM in test [1] and in test [2] were 30.1% and 38.4%, respectively.

Take `C[C@H](NC/C=C/c1ccccc1)c1ccccc1` [Compound 19, (S,E)-3-phenyl-N-(1-phenylethyl)prop-2-en-1-amine]: the inhibition at 4 µM in test [1] was 16.5%; in test [2], 11.3%.

On to `COC(=O)[C@H](NCC=C(c1ccccc1)c1ccccc1)c1ccc(F)cc1` [Compound 57, (R)-methyl 2-((3,3-diphenylallyl)amino)-2-(4-fluorophenyl)acetate], for which the inhibition at 4 µM is 12.7% in test [1] and -105% in test [2].

For the compound `CC(NCC=C(c1ccccc1)c1ccccc1)c1ccc(F)cc1` (stereo not drawn) [Compound 27, N-(1-(4-fluorophenyl)ethyl)-3,3-diphenylprop-2-en-1-amine], the inhibition at 4 µM in test [1] was 45.2%; in test [2], 49.3%.

Turning to `C[C@@H](NC/C=C/c1ccc2ccccc2c1)c1ccccc1` [Compound 33, (R,E)-3-(naphthalen-2-yl)-N-(1-phenylethyl)prop-2-en-1-amine], the inhibition at 4 µM was determined as 1.53% in test [1] and 15.7% in test [2].
